Experimental data from patent US5637319A, “Controlled-release preparations” (priority 1995, dated 1997).

Key:
[1] = parameters: species or system beagle dog; settings: dog, in vivo
Description: The peak time, Tmax, when the plasma 5-FU level reaches to its maximum level is used as a parameter for estimating the release time of drug in the GI tract after oral administration. […] According to the report of Anderson ([…]), for the dog, gastric emptying is 3-5 h, small intestine transit time is about 1 h and colonic transit time is 10-12 hr. On the other hand, Mizuta et al. (1989) reported that the small intestinal transit time in beagle dog is 3.0±1.4 h. Additionally, the transit of the test preparation was monitored by a direct examination of the dog intestine by abdominal incision. In this study, the delivery of these preparations to the ascending colon at 4 hr after administration was confirmed. In addition, to estimate the colon arrival time in the beagle dogs, sulfasalazine which is a pro-drug of 5ASA and is cleaved to sulfapyridine and 5ASA in the colon by azo-reductase of intestinal microflora was administered to the dogs. Sulfapyridine starts to appear in the blood circulation at 4 hr after administration and reaches to its maximum concentration at 10-12 hr (J. Pharm. Pharmacol., 1995 in press). Accordingly, colon arrival time has been estimated to be 4 hr in our beagle dogs.

[2] = dog, po
Source text: FIG. 18. Relationship between the thickness of EC layer of intestinal pressure controlled-release capsules and plasma fluorescein Tmax after oral administration to beagle dogs.

[3] = after sulfasalazine to dogs; J. Pharm. Pharmacol., 1995 in press; cited from earlier work
[4] = Release study of cisplatin capsules with different pore number and amount of gel-forming polymer (FIGS. 1a-c, 2a-c); type: physicochemical
Source text: The release rate of extremely hydrophilic low-molecular weight drug such as cisplatin from the sustained-release preparation is affected by the following three factors; (1) pore number made on the water-insoluble polymer, (2) pore size and (3) amount of gel-forming material inside the preparation. From the standpoint of mechanical operation of opening many uniform pores, the pore size was fixed to be 800 μm. Under the fixed pore size condition, the effects of the pore number was at first examined and the release patterns of cisplatin from the preparations are shown in FIGS. 1a, b and c. […] The release study data are summarized with respect to the effect of the amount of gel-forming polymer and the results are shown in FIGS. 2a, b and c.
The test was performed according to the procedure of the paddle method (JPXII). A dissolution media employed were the 1st solution (JPXII, pH 1.2) and the 2nd solution (JPXII, pH 6.8). Nine hundred ml of the dissolution medium was used at 37°±0.1° C. at 100rpm. Test capsule was put into a stainless sinker. After being enclosed in the sinker, the capsule was put into 900 ml of the 1st solution maintained at 37° C. The shaft was then placed in the fluid at 37° C. and the paddle was rotated at 100 rpm. To simulate the transit from gastric to intestinal pH, samples of 1st solution were replaced one hour later with the 2nd solution. The release profile of 5-FU was estimated by measuring the appearance of the drug by HPLC method. The cisplatin concentration was estimated by analyzing for platinum by atomic absorption spectrophotometry.

[5] = Serum cisplatin concentration after oral administration to rabbits; type: in vivo, rabbit; settings: sustained-release preparation
Description: The effects of the pore number and the amount of gel-forming polymer on the release profiles of cisplatin was confirmed in the in vivo study after oral administration of the preparations to rabbits using a reference preparation, cisplatin solution, at 20 mg/kg. […] The absorption rate of cisplatin is so rapid that the serum peak level appears within 1 hr.
In case of preparations of which drug release mechanism is based on the intestinal pressure, drug release profiles of the preparations in Examples 4, 5, 6, 7 and 8 cannot be measured by in vitro release experiments. In addition, in the case of sustained-release preparations in Examples 9, 10 and 11, the long-acting efficiency must be confirmed in the in vivo animal study after oral administration. Therefore, in vivo pharmacokinetics study was performed using beagle dogs and rabbits. In the in vivo study, the preparations of the Examples except examples 6, 10 and 11 were administered to dogs and rabbits, respectively. […] These plasma and serum samples were immediately frozen in a deep freezer at -20° C. until analyzed.
Plasma 5ASA and 5-FU concentrations were measured by an HPLC method after extraction of the drug from the plasma sample. The serum cisplatin level was determined by analyzing for platinum by atomic absorption spectrophotometry. The plasma calcitonin level was determined by an ELISA method.

[6] = system: blood total leukocyte (BTL) count; test: Pharmacodynamic study: blood total leukocyte (BTL) count after oral administration of rhG-CSF capsule to beagle dogs; type: in vivo, beagle dog; settings: 25 μg/kg oral, three dogs
Description: The test capsule, a preparation of Example 6, was orally administered to beagle dogs. At 30 min before drug administration, 0.6 ml of the blank blood sample was removed from the dog jugular vein. After administration, 0.1 ml of blood samples were collected at 10, 24, 36, 48, 60, 72 and 96 h. […] of the blood sample was used for blood total leukocyte (BTL) count. The BTL count was performed by microcell counter CC-180A (Sysmex, Toa Medical Electronics). The BTL count is expressed as a relative value, which is obtained by the respective control BTL count, namely the pre-dosing BTL count.

Molecule: O=C(O)c1cc(/N=N/c2ccc(S(=O)(=O)Nc3ccccn3)cc2)ccc1O [sulfasalazine]
- colon arrival time [1]: 4 h

Molecule: O=C1OC2(c3ccc(O)cc3Oc3cc(O)ccc32)c2ccccc21 [fluorescein]
- capsule thickness vs. in vivo Tmax [2]: good corelationship between the capsule thickness and the in vivo Tmax

Molecule: Nc1ccc(S(=O)(=O)Nc2ccccn2)cc1 [Sulfapyridine, sulfapyridine]
- time at which sulfapyridine starts to appear in the blood circulation [3]: 4 h

Molecule: N.N.[Cl][Pt][Cl] [cisplatin]
- release rate of cisplatin, effect of pore number ([4]; gel-forming polymer 100 mg): the pore number did not affect the release rate of cisplatin any more
- effect of increase of the amount of gel-forming polymer on release ([4]; pore number 20): the effect of the increase of the amount of gel-forming polymer did not appear
- release rate of cisplatin, effect of pore number ([4]; pore number 20 to 30, gel-forming polymer 25 mg and 50 mg): the release rate of cisplatin increases
- release rate of cisplatin, effect of amount of gel-forming polymer ([4]; pore number 30 and 60, gel-forming polymer 25 mg to 50 mg): the release rate of cisplatin decreases
- prolonged effect of pore number ([4]; pore number 30 to 60, gel-forming polymer 25 mg and 50 mg): prolonged effect was not observed
- serum cisplatin levels, effect of pore number ([5]; pore number 20 to 30, carbopol 25 mg (FIG. 4)): significantly increases as the pore number increases from 20 to 30
- serum cisplatin level vs. time curves, effect of amount of gel-forming polymer ([5]; pore number 30 (FIG. 5)): there is not a significant difference

B1: rhG-CSF: recombinant human granulocyte colony-stimulating factor, given orally as the capsule of Example 6 (protein, UniProt P09919 31-207, looked up)
Granulocyte …: TPLGPASSLPQSFLLKCLEQVRKIQGDGAALQEKLVSECATYKLCHPEELVLLGHSLGIPWAPLSSCPSQALQLAGCLSQLHSGLFLYQGLLQALEGISPELGPTLDTLQLDVADFATTIWQQMEELGMAPALQPTQGAMPAFASAFQRRAGGVLVASHLQSFLEVSYRVLRHLAQP
- BTL count relative to pre-dose level [6]: 1.3 folds of pre-dose level
- time at which BTL count starts to increase [6]: 10 h
- BTL count return to the normal level ([6]; end of the experiment): 96 h
